Legend:
Type in all cases: functional
Details in all cases: read-out: Activity
MCF7 [1] = experiment: Cytotoxicity against human MCF7 cells assessed as cell viability at 10 uM incubated for 72 hrs by SRB assay relative to control
Hs-578T [2] = experiment: Cytotoxicity against human Hs-578T cells assessed as cell viability at 10 uM incubated for 72 hrs by SRB assay relative to control
MDA-MB-231 [3] = experiment: Cytotoxicity against human MDA-MB-231 cells assessed as cell viability at 10 uM incubated for 72 hrs by SRB assay relative to control
MDA-MB-231 [4] = experiment: Cytotoxicity against human MDA-MB-231 cells assessed as cell viability at 30 uM incubated for 72 hrs by SRB assay relative to control
MCF7 [5] = experiment: Cytotoxicity against human MCF7 cells assessed as cell viability at 30 uM incubated for 72 hrs by SRB assay relative to control
Hs-578T [6] = experiment: Cytotoxicity against human Hs-578T cells assessed as cell viability at 30 uM incubated for 72 hrs by SRB assay relative to control

Structure (SMILES) | viability at 10 µM (MCF7 [1]) [%] | viability at 10 µM (Hs-578T [2]) [%] | viability at 10 µM (MDA-MB-231 [3]) [%] | viability at 30 µM (MDA-MB-231 [4]) [%] | viability at 30 µM (MCF7 [5]) [%] | viability at 30 µM (Hs-578T [6]) [%]
COc1cccc2c1OC1=NC(c3ccc4c(c3)OCO4)NC(=O)C1=C2 (configuration not stated) | 84.9 | 100 | 88.2 | 62.2 | 82.1 | 96.5
COc1cccc(-c2nc3c(c(=O)[nH]2)Cc2cccc(OC)c2O3)c1 | 93.6 | 99.3 | 70.5 | 51.6 | 71.3 | 85.3
COc1ccc(OC)c(-c2nc3c(c(=O)[nH]2)Cc2cc(Cl)ccc2O3)c1 | 69.2 | 91.7 | 91 | 78 | 62.6 | 92
CCC(CC)C1N=C2Oc3c(cccc3OC)C=C2C(=O)N1 (configuration not stated) | 85.9 | 98.4 | 85.8 | 64.1 | 84.8 | 83
COc1cccc2c1Oc1nc(/C=C/c3ccccc3)[nH]c(=O)c1C2 | 84.7 | 99.8 | 99.2 | 92.5 | 56.7 | 97.9
N#CC1=C(/N=C/Nc2ccccc2)Oc2ccc(Br)cc2C1CC(=O)c1ccccc1 (configuration not stated) | 74.6 | 96.1 | 98 | 96 | 37.9 | 89.9
COc1cccc(-c2nc3c(c(=O)[nH]2)Cc2cc(OC)ccc2O3)c1 | 73.1 | 88 | 69.3 | 41.2 | 49.8 | 77
COc1ccc2c(c1)Cc1c(nc(-c3cc(OC)ccc3OC)[nH]c1=O)O2 | 63.7 | 95.9 | 60.9 | 49.7 | 57.8 | 96.5
COc1cccc2c1Oc1nc(-c3ccc(Br)cc3)[nH]c(=O)c1C2 | 83.8 | 97.7 | 83.7 | 80.4 | 75.3 | 84.4
O=c1[nH]c(-c2ccc3c(c2)OCO3)nc2c1Cc1cc(Br)ccc1O2 | 83.4 | 86.1 | 85.3 | 77.8 | 83.1 | 78.5
COc1ccc2c(c1)C=C1C(=O)NC(c3c(OC)cc(OC)cc3OC)N=C1O2 (configuration not stated) | 101 | 97 | 86.3 | 78.5 | 100 | 65.5
COc1ccc2c(c1)Cc1c(nc(-c3cccc(Cl)c3)[nH]c1=O)O2 | 79.3 | 76 | 80.7 | 44.2 | 45.8 | 74.7
COc1cccc2c1Oc1nc(-c3ccccc3)[nH]c(=O)c1C2 | 91.2 | 91.1 | 91.8 | 89.2 | 88.5 | 75.8
COc1cccc2c1Oc1nc(-c3ccc(C)cc3)[nH]c(=O)c1C2 | 78.5 | 86.8 | 99.2 | 91.1 | 77.2 | 63.3
Cc1ccc2c(c1)Cc1c(nc(-c3ccccc3)[nH]c1=O)O2 | 85.8 | 96 | 90.1 | 65.6 | 73.1 | 73.3
COc1ccccc1-c1nc2c(c(=O)[nH]1)Cc1cccc(OC)c1O2 | 85.5 | 86 | 82.9 | 63.6 | 54.8 | 80.2
COc1ccc(OC)c(-c2nc3c(c(=O)[nH]2)Cc2cccc(OC)c2O3)c1 | 77.7 | 72.7 | 87.1 | 88.4 | 76.6 | 74
